Like-named read-outs stand apart in the source and are kept apart here.
Tests used:
[1] = system: A549 (carcinomic human alveolar basal epithelial cell); experiment: CCK-8 antiproliferative assay, A549 cell line; format: cell-based
Method: (§1) In vitro cytotoxicity of the γ-lactam derivatives was evaluated by testing their antiproliferative activities against several human cancer cell lines. Cell counting kit (CCK-8) assay was used for the evaluation of growth inhibition.
(§2) All stock solutions of the investigated compounds were prepared by dissolving the powdered materials in appropriate amounts of DMSO. The final concentration of DMSO never exceeded 5% (v/v) in reactions. The stock solution was stored at 5 °C until it was used.
(§3) All were supplemented with 10% of fetal bovine serum (FBS) (Sigma-Aldrich, Madrid, Spain) and with 1% of NORMOCIN solution (Thermo Fisher, Waltham, Massachusetts, MA, USA). […] For cytotoxicity experiments, A549 cells were seeded in 96-well plates at a density of 2.5–3 × 10^3 cells per well and incubated overnight to achieve 70% of confluence at the time of exposition to the cytotoxic compound.
(§4) Both were supplemented with 10% of fetal bovine serum (FBS) (Sigma-Aldrich, Spain) and with 1% of NORMOCIN solution (Thermo Fisher, Waltham, Massachusetts, MA, USA). […] For cytotoxicity experiments, A549 cells were seeded in 96-well plates at a density of 2.5–3 × 10^3 cells per well and incubated overnight to achieve 70% of confluence at the time of exposition to the cytotoxic compound.

[2] = system: MRC5 non-malignant lung fibroblasts; experiment: CCK-8 assay on non-malignant cells for selective toxicity; format: cell-based; settings: Homo sapiens
Method: as §1, §2, §3, §4

[3] = system: SKOV3 (human ovarian carcinoma); experiment: CCK-8 antiproliferative assay, SKOV3 cell line
Method: as §1, §2, §3

[4] = Homo sapiens, A549, A549 cell line, CCK-8, read-out: IC50 A549
[5] = MRC5 non-malignant lung fibroblasts, CCK-8, read-out: IC50 MRC5
[6] = Homo sapiens, SK-OV-3, read-out: IC50 SKOV3, SKOV3 cell line, CCK-8
[7] = Homo sapiens, A549, read-out: IC50 of individual enantiomers of 4v

SMILES	IC50 [3, 6]	IC50 [1, 4]	IC50 [2, 5]	other results
Cc1ccc(NC2=CC(c3ccccc3C)N(c3ccc(C)cc3)C2=O)cc1 (stereo not drawn) [4e]	> 50 µM	41.3 ± 1.29 µM	> 50 µM	
Cc1ccc(NC2=CC(c3ccco3)N(c3ccc(C)cc3)C2=O)cc1 (stereo not drawn) [4k]	> 50 µM	11.5 ± 0.85 µM	> 50 µM	
Cc1ccc(NC2=CC(c3cccs3)N(c3ccc(C)cc3)C2=O)cc1 (stereo not drawn) [4l]	12.7 ± 1.83 µM	12.7 ± 1.07 µM	> 50 µM	
Cc1ccc(NC2=CC(C(C)C)N(c3ccc(C)cc3)C2=O)cc1 (stereo not drawn) [4o]	> 50 µM	11.1 ± 0.71 µM	> 50 µM	
COc1ccc(NC2=CC(c3ccccc3)N(c3ccc(OC)cc3)C2=O)cc1 (stereo not drawn) [6a]	6.84 ± 0.59 µM	12 ± 1.96 µM	> 50 µM	
CCOP(=O)(CC1C=C(Nc2ccc(OC)cc2)C(=O)N1c1ccc(OC)cc1)OCC (stereo not drawn) [6c]				IC50 ([1]; Homo sapiens, A549, read-out: IC50 A549): 6.84 ± 0.22 µM; IC50 ([2]; MRC5, read-out: IC50 MRC5): > 50 µM; Cytotoxic activity against SKOV3 cell line, in words [3]: did not show any cytotoxicity; IC50 ([3]; Homo sapiens, SK-OV-3, read-out: IC50 SKOV3): > 50 µM
O=C1C(Nc2cccc(C(F)(F)F)c2)=CC(c2ccc([N+](=O)[O-])cc2)N1c1cccc(C(F)(F)F)c1 (stereo not drawn) [11b]	8.5 ± 0.54 µM	2 ± 0.78 µM	44.6 ± 1.16 µM	
Cc1ccc(/N=C(/C=C/C=C/c2ccccc2)C(=O)Nc2ccc(C)cc2)cc1 [20a, (2Z, 3E, 5E)-6-Phenyl-N-(p-tolyl)-2-(p-tolylimino)hexa-3,5-dienamide]	> 50 µM	6.9 ± 0.73 µM	> 50 µM	
Cc1ccc(\N=C(/C=C/C=C/c2ccc(C(F)(F)F)cc2)C(=O)Nc2ccc(C)cc2)cc1 [20b]	> 50 µM	9.77 ± 0.17 µM	> 50 µM	
CCOP(=O)(C[C@H]1C=C(Nc2ccc(C)cc2)C(=O)N1c1ccc(C)cc1)OCC [(R)-4v]				IC50 [1, 7]: 9.23 ± 1.68 µM
CCOP(=O)(C[C@@H]1C=C(Nc2ccc(C)cc2)C(=O)N1c1ccc(C)cc1)OCC [(S)-4v]				IC50 [1, 7]: 10.5 ± 0.8 µM
COc1cccc2c1C(=O)c1c(O)c3c(c(O)c1C2=O)C[C@@](O)(C(=O)CO)C[C@@H]3O[C@H]1C[C@H](N)[C@H](O)[C@H](C)O1 [Doxorubicin, reference compound]			> 50 µM	

Now from value to compound, other results behind:

IC50 [3, 6]	SMILES	IC50 [1, 4]	IC50 [2, 5]	other results
> 50 µM	Cc1ccc(NC2=CC(c3cccc(C)c3)N(c3ccc(C)cc3)C2=O)cc1 (stereo not drawn) [4d]	31.2 ± 1.04 µM	> 50 µM	
23.5 ± 0.75 µM	Cc1ccc(NC2=CC(c3ccc(F)cc3)N(c3ccc(C)cc3)C2=O)cc1 (stereo not drawn) [4f]	10.7 ± 1.21 µM	> 50 µM	
27.7 ± 1.32 µM	Cc1ccc(NC2=CC(c3cccc([N+](=O)[O-])c3)N(c3ccc(C)cc3)C2=O)cc1 (stereo not drawn) [4h]	7.33 ± 0.57 µM	27.2 ± 1.24 µM	
> 50 µM	Cc1ccc(NC2=CC(c3ccc4ccn(C)c4c3)N(c3ccc(C)cc3)C2=O)cc1 (stereo not drawn) [4j]	19.3 ± 0.7 µM	> 50 µM	
30.5 ± 1.34 µM	Cc1ccc(NC2=CC(c3ccc4ccccc4c3)N(c3ccc(C)cc3)C2=O)cc1 (stereo not drawn) [4m]	12.1 ± 0.74 µM	21.3 ± 0.74 µM	
29.2 ± 1 µM	Cc1ccc(NC2=CC(C)N(c3ccc(C)cc3)C2=O)cc1 (stereo not drawn) [4n]	15.7 ± 0.92 µM	> 50 µM	
~10 µM	Cc1ccc(NC2=CC(/C=C/c3ccccc3)N(c3ccc(C)cc3)C2=O)cc1 (stereo not drawn) [4r]	~10 µM	18.2 ± 0.81 µM	IC50 ([1]; A549 cell line, CCK-8, read-out: IC50 A549): 10.3 ± 0.8 µM; IC50 ([3]; read-out: IC50 SKOV3, SKOV3 cell line, CCK-8): 9.59 ± 0.82 µM
> 50 µM	CC1=C(Nc2ccc(C)cc2)C(=O)N(c2ccc(C)cc2)C1c1ccc([N+](=O)[O-])cc1 (stereo not drawn) [5a]	2.05 ± 0.23 µM	> 50 µM	
> 50 µM	Cc1ccc(NC2=C(Cc3ccccc3)C(c3ccc([N+](=O)[O-])cc3)N(c3ccc(C)cc3)C2=O)cc1 (stereo not drawn) [5b]	9.92 ± 1.15 µM	47.6 ± 1.67 µM	
> 50 µM	O=C1C(Nc2ccc(Br)cc2)=CC(c2ccc([N+](=O)[O-])cc2)N1c1ccc(Br)cc1 (stereo not drawn) [8a]	> 50 µM		
> 50 µM	O=C1C(Nc2ccc3ccccc3n2)=CC(c2ccc([N+](=O)[O-])cc2)N1c1ccc2ccccc2n1 (stereo not drawn) [12a]	9.25 ± 1.49 µM	> 50 µM	Cytotoxic activity against SKOV3 cell line, in words [3]: No activity
> 50 µM	Cc1ccc(N[C@@H]2C[C@H](C(F)(F)F)N(c3ccc(C)cc3)C2=O)cc1 [18a]	3.27 ± 0.65 µM	> 50 µM	

Reference: paper PMC8400033, “A Multicomponent Protocol for the Synthesis of Highly Functionalized γ-Lactam Derivatives and Their Applications as Antiproliferative Agents” (Pharmaceuticals, 2021)
